Measurements: ChEMBL document CHEMBL5634101, “Discovery of NLRP3 inhibitors using machine learning: Identification of a hit compound to treat NLRP3 activation-driven diseases” (Eur J Med Chem, 2023)
Activity calls are given as the source filed them. The calls are words filed in the database; no cut-off is given here.

Legend:
[1] = Stability in human liver microsomes assessed as half-life at 1.5 uM measured upto 45 mins in presence of NADPH by LC-MS/MS analysis; assay type: ADME, Microsome
THP-1 = test: Cytotoxicity against PMA-differentiated human THP-1 cells assessed as reduction in cell viability upto 50 uM incubated for 24 hrs by CCK8 assay; assay type: toxicity, cell-based; conditions: thp-1, 24 h
[2] = target: NACHT, LRR and PYD domains-containing protein 3 (Mus musculus) (UniProt Q8R4B8); test: (§1) Inhibition of NLRP3 inflammasome activation in LPS/Nigericin induced C57 mouse BMDM cells assessed as reduction in ASC expression in cell supernatant at 2.5 to 10 uM preincubated with LPS for 3 hrs followed by compound addition for 30 mins prior to nigericin addition and measured after 30 mins by Western blot analysis; assay type: cell-based; conditions: dose 2.5-10 µM, time 1.0 hrs
NACHT, LRR and PYD domains-containing protein 3 (Mus musculus), sequence (Q8R4B8 whole entry, the tested form may be a part): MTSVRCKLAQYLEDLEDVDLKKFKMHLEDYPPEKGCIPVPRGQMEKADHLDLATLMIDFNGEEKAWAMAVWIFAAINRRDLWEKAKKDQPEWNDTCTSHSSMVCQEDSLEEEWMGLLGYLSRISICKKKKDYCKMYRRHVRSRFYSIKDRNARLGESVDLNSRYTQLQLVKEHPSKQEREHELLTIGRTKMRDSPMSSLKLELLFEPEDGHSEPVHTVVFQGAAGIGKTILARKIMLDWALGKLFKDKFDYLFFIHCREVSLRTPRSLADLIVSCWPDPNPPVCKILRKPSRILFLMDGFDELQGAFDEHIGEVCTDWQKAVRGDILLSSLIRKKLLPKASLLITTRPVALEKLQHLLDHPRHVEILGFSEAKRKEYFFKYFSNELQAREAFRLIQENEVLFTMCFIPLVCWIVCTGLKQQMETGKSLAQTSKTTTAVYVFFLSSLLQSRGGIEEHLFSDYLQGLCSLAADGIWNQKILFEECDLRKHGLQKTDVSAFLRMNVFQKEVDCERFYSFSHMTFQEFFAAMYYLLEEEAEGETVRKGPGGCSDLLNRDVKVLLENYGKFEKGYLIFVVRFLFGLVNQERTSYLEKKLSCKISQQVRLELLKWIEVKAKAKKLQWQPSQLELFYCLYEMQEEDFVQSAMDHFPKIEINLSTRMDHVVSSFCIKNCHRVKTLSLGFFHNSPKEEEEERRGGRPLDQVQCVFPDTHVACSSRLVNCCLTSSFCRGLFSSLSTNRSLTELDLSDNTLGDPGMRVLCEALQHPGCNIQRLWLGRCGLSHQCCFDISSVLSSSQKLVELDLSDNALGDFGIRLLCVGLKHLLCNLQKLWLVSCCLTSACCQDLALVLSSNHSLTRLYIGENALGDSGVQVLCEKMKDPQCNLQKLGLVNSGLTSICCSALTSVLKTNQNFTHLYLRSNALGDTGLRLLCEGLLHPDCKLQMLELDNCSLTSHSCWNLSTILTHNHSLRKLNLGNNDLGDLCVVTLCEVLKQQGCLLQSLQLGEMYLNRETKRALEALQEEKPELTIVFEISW

Mus musculus [3] = test: Anti-inflammatory activity in LPS-induced C57 sepsis mouse model assessed as reduction in serum IL-1beta level at 10 to 30 mg/kg, ip preadministered with compound for 30 mins followed by LPS stimulation and measured after 6 hrs by ELISA; assay type: functional, organism-based; conditions: dose 10-30 mg/kg, time 6.5 hrs
[4] = target: NACHT, LRR and PYD domains-containing protein 3 (Mus musculus) (UniProt Q8R4B8); test: (§2) Inhibition of NLRP3 inflammasome assembly in C57 mouse BMDM cells assessed as effect on ASC binding at 2.5 to 10 uM preincubated with LPS for 3 hrs followed by compound addition for 30 mins prior to nigericin addition and measured after 30 mins by immunoprecipitation; assay type: cell-based; conditions: dose 2.5-10 µM, time 1.0 hrs
Mus musculus [5] = test: Anti-inflammatory activity in MSU-induced C57 mouse model of gouty arthritis assessed as reduction in AUC of foot swelling at 30 mg/kg, ip preadministered with compound for 3 days followed by MSU injection and measured after 24 hrs; assay type: functional, organism-based; conditions: time 4.0 day
[6] = target: T1, Interferon-inducible protein AIM2 (Mus musculus) (UniProt Q91VJ1); test: Inhibition of AIM2 inflammasome activation in C57 mouse BMDM cells assessed as reduction in caspase-1 maturation at 5 uM preincubated with LPS for 3 hrs followed by poly(dA:dT) stimulation for 4 hrs by Western blot analysis; assay type: cell-based
T1 sequence (whole entry): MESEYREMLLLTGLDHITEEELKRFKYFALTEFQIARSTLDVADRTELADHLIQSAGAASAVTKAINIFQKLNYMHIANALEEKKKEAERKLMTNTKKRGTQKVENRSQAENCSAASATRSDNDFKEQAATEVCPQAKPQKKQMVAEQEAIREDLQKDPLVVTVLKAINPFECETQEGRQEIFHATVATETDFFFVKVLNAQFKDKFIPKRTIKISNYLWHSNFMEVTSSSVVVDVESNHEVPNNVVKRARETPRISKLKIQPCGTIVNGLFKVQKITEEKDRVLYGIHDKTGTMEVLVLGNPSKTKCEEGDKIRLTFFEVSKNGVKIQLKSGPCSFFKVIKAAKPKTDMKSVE

[7] = target: NACHT, LRR and PYD domains-containing protein 3 (Mus musculus) (UniProt Q8R4B8); test: Inhibition of NLRP3 inflammasome activation in LPS/Nigericin induced C57 mouse BMDM cells assessed as reduction in […] preincubated with LPS for 3 hrs followed by compound addition for 30 mins prior to nigericin addition and measured after 30 mins by PI/Hoechst 33342 staining based analysis; assay type: cell-based; conditions: time 1.0 hrs
[8] = target: NLR family CARD domain-containing protein 4 (Mus musculus) (UniProt Q3UP24); test: Inhibition of NLRC4 inflammasome activation in C57 mouse BMDM cells assessed as reduction in IL-1beta secretion at 5 uM preincubated with LPS for 3 hrs followed by Salmonella typhimurium stimulation for 2 hrs by Western blot analysis; assay type: cell-based
NLR family CARD domain-containing protein 4 (Mus musculus), sequence (Q3UP24 whole entry, the tested form may be a part): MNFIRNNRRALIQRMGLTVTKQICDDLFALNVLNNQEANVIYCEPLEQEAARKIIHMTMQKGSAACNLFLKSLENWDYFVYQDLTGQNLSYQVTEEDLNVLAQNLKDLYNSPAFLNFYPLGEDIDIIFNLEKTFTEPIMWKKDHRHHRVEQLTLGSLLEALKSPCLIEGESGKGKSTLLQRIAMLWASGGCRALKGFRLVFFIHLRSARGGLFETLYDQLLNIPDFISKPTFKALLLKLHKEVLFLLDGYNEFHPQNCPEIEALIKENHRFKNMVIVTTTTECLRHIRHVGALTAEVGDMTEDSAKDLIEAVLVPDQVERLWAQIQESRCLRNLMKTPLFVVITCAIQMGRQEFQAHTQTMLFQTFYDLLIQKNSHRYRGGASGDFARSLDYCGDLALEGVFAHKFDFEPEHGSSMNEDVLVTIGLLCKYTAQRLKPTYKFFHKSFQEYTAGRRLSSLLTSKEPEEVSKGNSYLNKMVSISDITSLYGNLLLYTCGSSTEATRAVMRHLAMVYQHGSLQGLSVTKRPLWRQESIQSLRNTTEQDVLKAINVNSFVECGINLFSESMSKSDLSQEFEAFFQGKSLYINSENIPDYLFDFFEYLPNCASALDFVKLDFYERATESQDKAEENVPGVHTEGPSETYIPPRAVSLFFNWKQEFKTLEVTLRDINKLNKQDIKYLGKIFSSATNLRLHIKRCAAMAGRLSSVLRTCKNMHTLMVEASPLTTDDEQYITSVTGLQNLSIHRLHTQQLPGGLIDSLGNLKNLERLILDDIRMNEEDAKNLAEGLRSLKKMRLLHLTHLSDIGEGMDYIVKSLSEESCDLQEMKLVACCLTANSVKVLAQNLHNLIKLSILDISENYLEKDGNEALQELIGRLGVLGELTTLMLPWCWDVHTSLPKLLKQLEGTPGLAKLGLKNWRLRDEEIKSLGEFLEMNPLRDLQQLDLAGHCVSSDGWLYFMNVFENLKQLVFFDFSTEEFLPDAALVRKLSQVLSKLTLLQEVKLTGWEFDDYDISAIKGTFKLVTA

Mus musculus [9] = test: Anti-inflammatory activity in LPS-induced C57 sepsis mouse model assessed as reduction in inflammatory infiltration in liver at 10 to 30 mg/kg, ip preadministered with compound for 30 mins followed by LPS stimulation and measured after 6 hrs by H&E staining based analysis; assay type: functional, organism-based; conditions: dose 10-30 mg/kg, time 6.5 hrs
[10] = target: T2, NACHT, LRR and PYD domains-containing protein 3 (Homo sapiens, UniProt Q96P20); test: (§3) Inhibition of NLRP3 inflammasome activation in […]-differentiated human THP-1 cells assessed as effect on potassium efflux at 2.5 to 10 uM preincubated with LPS for 3 hrs followed by compound addition for 30 mins prior to nigericin addition and measured after 30 mins by fluorescence based analysis; assay type: cell-based; conditions: dose 2.5-10 µM, time 1.0 hrs
T2 sequence (Q96P20 whole entry, the tested form may be a part): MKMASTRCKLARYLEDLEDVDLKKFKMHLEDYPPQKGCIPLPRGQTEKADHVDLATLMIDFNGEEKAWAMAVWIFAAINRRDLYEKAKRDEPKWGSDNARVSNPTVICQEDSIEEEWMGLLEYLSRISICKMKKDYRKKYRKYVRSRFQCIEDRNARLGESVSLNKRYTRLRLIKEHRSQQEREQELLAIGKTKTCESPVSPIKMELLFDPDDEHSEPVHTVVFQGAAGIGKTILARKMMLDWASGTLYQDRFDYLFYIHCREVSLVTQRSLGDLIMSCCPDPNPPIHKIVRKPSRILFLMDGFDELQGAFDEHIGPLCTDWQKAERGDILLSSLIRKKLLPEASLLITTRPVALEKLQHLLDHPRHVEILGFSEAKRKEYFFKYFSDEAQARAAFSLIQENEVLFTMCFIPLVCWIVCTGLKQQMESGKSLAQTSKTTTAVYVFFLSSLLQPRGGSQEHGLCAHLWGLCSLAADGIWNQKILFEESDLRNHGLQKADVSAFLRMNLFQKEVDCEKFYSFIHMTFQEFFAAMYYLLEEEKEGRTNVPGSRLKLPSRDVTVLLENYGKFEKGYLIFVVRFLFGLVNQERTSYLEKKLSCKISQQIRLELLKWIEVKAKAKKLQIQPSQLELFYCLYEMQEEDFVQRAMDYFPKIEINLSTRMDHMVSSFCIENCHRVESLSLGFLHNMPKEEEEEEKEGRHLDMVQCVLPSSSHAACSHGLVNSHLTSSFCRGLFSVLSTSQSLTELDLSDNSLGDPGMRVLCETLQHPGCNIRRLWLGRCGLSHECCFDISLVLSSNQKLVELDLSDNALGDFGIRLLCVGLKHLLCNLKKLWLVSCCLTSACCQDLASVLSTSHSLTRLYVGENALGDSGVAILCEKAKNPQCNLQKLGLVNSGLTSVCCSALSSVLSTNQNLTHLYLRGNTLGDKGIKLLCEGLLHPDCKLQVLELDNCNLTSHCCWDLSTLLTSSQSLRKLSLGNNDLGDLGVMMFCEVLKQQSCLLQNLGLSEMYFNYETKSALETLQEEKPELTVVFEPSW

[11] = target: NACHT, LRR and PYD domains-containing protein 3 (Mus musculus) (UniProt Q8R4B8); test: as §1, with “intracellular NLRP3” for “ASC”; assay type: cell-based; conditions: dose 2.5-10 µM, time 1.0 hrs
[12] = target: NACHT, LRR and PYD domains-containing protein 3 (Mus musculus) (UniProt Q8R4B8); test: as §1, with “IL-1beta maturation” for “ASC expression”; assay type: cell-based; conditions: dose 2.5-10 µM, time 1.0 hrs
Mus musculus [13] = test: Anti-inflammatory activity in MSU-induced C57 mouse model of acute peritonitis assessed as reduction in IL-1beta expression preadministered intraperitoneally with compound for 3 days followed by MSU injection and measured after 6 hrs by ELISA; assay type: functional, organism-based; conditions: dose 5-30 mg/kg, route ip, time 78.0 hrs
Mus musculus [14] = test: Anti-inflammatory activity in MSU-induced C57 mouse model of gouty arthritis assessed as reduction in foot swelling at 10 to 30 mg/kg, ip preadministered with compound for 3 days followed by MSU injection and measured after 24 hrs; assay type: functional, organism-based; conditions: dose 10-30 mg/kg, time 4.0 day
[15] = target: NACHT, LRR and PYD domains-containing protein 3 (Mus musculus) (UniProt Q8R4B8); test: as §2, with “reduction in higher order complex cross-linking” for “effect on ASC binding”, “ASC oligomerization based blotting analysis” for “immunoprecipitation”; assay type: cell-based; conditions: dose 2.5-10 µM, time 1.0 hrs
[16] = target: NACHT, LRR and PYD domains-containing protein 3 (Mus musculus) (UniProt Q8R4B8); test: Inhibition of NLRP3 inflammasome activation in C57 mouse BMDM cells assessed as reduction in caspase-1 maturation at 5 uM preincubated with LPS for 3 hrs followed by compound addition for 30 mins prior to ATP addition and measured after 30 mins by Western blot analysis; assay type: cell-based; conditions: time 1.0 hrs
[17] = target: T2, NACHT, LRR and PYD domains-containing protein 3; test: Inhibition of NLRP3 inflammasome activation in […]-differentiated human THP-1 cells assessed as effect on chloride efflux at 2.5 to 10 uM preincubated with LPS for 3 hrs followed by compound addition for 30 mins prior to nigericin addition and measured after 30 mins by fluorescence based analysis; assay type: cell-based; conditions: dose 2.5-10 µM, time 1.0 hrs
[18] = target: T2, NACHT, LRR and PYD domains-containing protein 3; test: as §3, with “ROS production” for “potassium efflux”, “at” for “at 2.5 to”, “MitoSOX dye/Hoechst 33342 staining” for “fluorescence”, “based confocal microscopic” for “based”; assay type: cell-based; conditions: time 1.0 hrs
[19] = target: NLR family CARD domain-containing protein 4 (Mus musculus) (UniProt Q3UP24); test: Inhibition of NLRC4 inflammasome activation in C57 mouse BMDM cells assessed as reduction in caspase-1 maturation at 5 uM preincubated with LPS for 3 hrs followed by Salmonella typhimurium stimulation for 2 hrs by Western blot analysis; assay type: cell-based
[20] = target: NACHT, LRR and PYD domains-containing protein 3 (Mus musculus) (UniProt Q8R4B8); test: Inhibition of NLRP3 inflammasome activation in C57 mouse BMDM cells assessed as reduction in caspase-1 activation at 5 uM preincubated with LPS for 3 hrs followed by compound addition for 30 mins prior to nigericin addition and measured after 30 mins by Western blot analysis; assay type: cell-based; conditions: time 1.0 hrs

half-life at 1.5 µM [1]: 2.07 h
inhibition [2]: inactive
inhibition [4]: Active
inhibition [6]: inactive
inhibition [7]: Active
inhibition [8]: inactive
inhibition [10]: inactive
inhibition [11]: inactive
inhibition [12]: Active
inhibition [15]: Active
inhibition [16]: Active
inhibition [17]: inactive
inhibition [18]: inactive
inhibition [19]: inactive
inhibition [20]: Active
SMILES: COc1ccc(N2C(=O)/C(=C\c3ccccc3C(F)(F)F)SC2=S)cc1
Activity (THP-1): Non-Toxic
Activity (Mus musculus [3]): Active
Activity (Mus musculus [5]): Active
Activity (Mus musculus [9]): Active
Activity (Mus musculus [13]): Dose-Dependent Effect
Activity (Mus musculus [14]): Active
